Experimental data taken from PMC11580438, “Enhanced cell stress response and protein degradation capacity underlie artemisinin resistance in Plasmodium falciparum” (mSphere, 2024).

Columns and labels:
[1] = target: T1, P. falciparum proteasome, β5 activity (20S CP / 26S) (Plasmodium falciparum, UniProt Q8IJT1); experiment: Suc-LLVY-AMC cleavage in lysate of treated trophozoites; type: cell-based; conditions: intact parasites treated 3 h with 50 or 700 nM, then lysed; direct action on the proteasome not shown; non-specific alkylator; pH 7.5, 37 °C
T1 construct: gene PF3D7_1011400; native proteasome in NP-40 lysate of 26-30 hpi trophozoites; with Proteasome subunit beta type-7 (beta2 subunit); Proteasome subunit beta type-6 (beta1 subunit)
T1 sequence (Q8IJT1 entry or part of it): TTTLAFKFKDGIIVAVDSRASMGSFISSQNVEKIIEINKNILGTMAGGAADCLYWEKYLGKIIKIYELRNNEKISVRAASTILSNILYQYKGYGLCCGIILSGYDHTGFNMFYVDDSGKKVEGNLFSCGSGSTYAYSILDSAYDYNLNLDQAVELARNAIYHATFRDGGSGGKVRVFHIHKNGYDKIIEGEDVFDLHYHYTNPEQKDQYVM

[2] = target: T2, P. falciparum proteasome, β2 activity (20S CP / 26S) (Plasmodium falciparum, UniProt Q8I6T3); experiment: Ac-RLR-AMC cleavage in lysate of treated trophozoites; type: cell-based; conditions: intact parasites treated 3 h with 50 or 700 nM, then lysed; direct action on the proteasome not shown; non-specific alkylator; pH 7.5, 37 °C
T2 construct: gene PF3D7_1328100; native proteasome in NP-40 lysate of 26-30 hpi trophozoites; with Proteasome subunit beta type-5; Proteasome subunit beta type-6 (beta1 subunit)
T2 sequence (Q8I6T3 entry or part of it): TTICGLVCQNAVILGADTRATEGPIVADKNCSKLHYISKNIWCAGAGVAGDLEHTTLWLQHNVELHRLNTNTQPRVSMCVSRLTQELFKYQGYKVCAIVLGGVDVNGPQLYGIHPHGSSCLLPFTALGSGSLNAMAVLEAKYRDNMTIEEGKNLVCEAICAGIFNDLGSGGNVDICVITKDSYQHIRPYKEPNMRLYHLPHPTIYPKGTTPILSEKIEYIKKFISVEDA

[3] = target: T3, P. falciparum proteasome, β1 activity (20S CP / 26S) (Plasmodium falciparum, UniProt Q8I0U7); experiment: Ac-nLPnLD-AMC cleavage in lysate of treated trophozoites; type: cell-based; conditions: intact parasites treated 3 h with 50 or 700 nM, then lysed; direct action on the proteasome not shown; non-specific alkylator; pH 7.5, 37 °C
T3 construct: gene PF3D7_0931800; native proteasome in NP-40 lysate of 26-30 hpi trophozoites; with Proteasome subunit beta type-7 (beta2 subunit); Proteasome subunit beta type-5
T3 sequence (Q8I0U7 entry or part of it): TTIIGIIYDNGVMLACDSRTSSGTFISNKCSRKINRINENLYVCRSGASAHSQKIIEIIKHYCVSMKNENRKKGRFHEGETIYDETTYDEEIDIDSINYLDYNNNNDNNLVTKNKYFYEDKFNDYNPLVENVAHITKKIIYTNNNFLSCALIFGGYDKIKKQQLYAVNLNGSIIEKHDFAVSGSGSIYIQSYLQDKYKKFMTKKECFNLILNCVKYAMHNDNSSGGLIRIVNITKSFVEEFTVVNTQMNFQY

[4] = target: T1, P. falciparum proteasome, β5 activity (20S CP / 26S); experiment: Suc-LLVY-AMC cleavage in lysate of treated trophozoites; type: cell-based
[5] = system: T4, P. falciparum proteasome, β5 activity (20S CP / 26S); conditions: intact Kelch13 C580Y parasites treated 3 h, then lysed; direct action on the proteasome not shown; 6 µM substrate, pH 7.5, 37 °C; mutation in the neighbouring β2 subunit, β5 wild type
T4 construct: gene beta5

SMILES	% activity [1]	% activity [2]	% activity [3]	inhibition at 3 µM [4] [%]	% inhibition at 3 μM [5] [%]
C[C@@H]1CC[C@H]2[C@@H](C)C(O)O[C@@H]3O[C@@]4(C)CC[C@@H]1[C@]32OO4 (some centres unmarked) [DHA]	DHA inhibited all three catalytic subunits of proteasomes derived from Kelch13^WT	DHA inhibited all three catalytic subunits of proteasomes derived from Kelch13^WT	DHA inhibited all three catalytic subunits of proteasomes derived from Kelch13^WT	–	–
c1cc(C2CCC3(CC2)OOC2(O3)C3CC4CC(C3)CC2C4)ccc1OCCN1CCOCC1 (centres unmarked) [OZ439]	–	–	–	28	52
